Measurements as given in patent publication US20260184702A1, “SYNTHESIS, PHARMACOLOGY AND USE OF NEW WATER-SOLUBLE AND SELECTIVE FMS-LIKE TYROSINE KINASE3 (FLT3) INHIBITORS” (Universität Regensburg, priority 2022, published 2026).
Converted amounts (≈) assume the structure as drawn. Read-outs that look alike come from different tables or passages of the source.

Key:
[1] = Solubility test by UV-Vis spectroscopy of saturated solutions; type: physicochemical; conditions: saturated solution; for solubility: thermodynamic from solid
Method: All UV-Vis measurements were carried out with an Agilent Cary 60 UV-Vis 2.00 between 800-200 nm. The absorbance was measured with a scan rate of 300.0 nm/min, a data interval of 0.50 nm and an UV-Vis Average Time of 0.10 s. For all measurements a cuvette with 10 mm light path was used. A calibration curve was plotted from several different concentrations and the solubility of the respective compound was determined by measuring the absorbance of a diluted saturated solution. As a blank curve a mixture of ultrapure water and ethanol in a ratio of 1:1 or 5:95 was recorded. For the calibration curve a 100 μM or a 10 μM solution of the compound in an ultrapure water:ethanol (1:1) or (5:95)-mixture was prepared and diluted to obtain at least 6 concentrations. […] The supernatant was taken using a syringe and filtered through a syringe filter (RC Membrane). The saturated solution was diluted with ultrapure water and ethanol to obtain an appropriate concentration in a water:ethanol (1:1) or (5:95)-mixture. The long wave absorbance maximum was used for determination of the solubility (mean values, determination in triplicate). […] By plotting the concentration of the solution against the absorbance values at the previously determined wavelength maximum a calibration curve was obtained (FIG. 1B).

human FLT3-ITD = target: T1, human FLT3-ITD (Homo sapiens, UniProt P36888); assay: Enzymatic kinase assay FLT3 (ITD), 10-dose IC50 mode (Reaction Biology); type: biochemical
T1 sequence (P36888 1-993): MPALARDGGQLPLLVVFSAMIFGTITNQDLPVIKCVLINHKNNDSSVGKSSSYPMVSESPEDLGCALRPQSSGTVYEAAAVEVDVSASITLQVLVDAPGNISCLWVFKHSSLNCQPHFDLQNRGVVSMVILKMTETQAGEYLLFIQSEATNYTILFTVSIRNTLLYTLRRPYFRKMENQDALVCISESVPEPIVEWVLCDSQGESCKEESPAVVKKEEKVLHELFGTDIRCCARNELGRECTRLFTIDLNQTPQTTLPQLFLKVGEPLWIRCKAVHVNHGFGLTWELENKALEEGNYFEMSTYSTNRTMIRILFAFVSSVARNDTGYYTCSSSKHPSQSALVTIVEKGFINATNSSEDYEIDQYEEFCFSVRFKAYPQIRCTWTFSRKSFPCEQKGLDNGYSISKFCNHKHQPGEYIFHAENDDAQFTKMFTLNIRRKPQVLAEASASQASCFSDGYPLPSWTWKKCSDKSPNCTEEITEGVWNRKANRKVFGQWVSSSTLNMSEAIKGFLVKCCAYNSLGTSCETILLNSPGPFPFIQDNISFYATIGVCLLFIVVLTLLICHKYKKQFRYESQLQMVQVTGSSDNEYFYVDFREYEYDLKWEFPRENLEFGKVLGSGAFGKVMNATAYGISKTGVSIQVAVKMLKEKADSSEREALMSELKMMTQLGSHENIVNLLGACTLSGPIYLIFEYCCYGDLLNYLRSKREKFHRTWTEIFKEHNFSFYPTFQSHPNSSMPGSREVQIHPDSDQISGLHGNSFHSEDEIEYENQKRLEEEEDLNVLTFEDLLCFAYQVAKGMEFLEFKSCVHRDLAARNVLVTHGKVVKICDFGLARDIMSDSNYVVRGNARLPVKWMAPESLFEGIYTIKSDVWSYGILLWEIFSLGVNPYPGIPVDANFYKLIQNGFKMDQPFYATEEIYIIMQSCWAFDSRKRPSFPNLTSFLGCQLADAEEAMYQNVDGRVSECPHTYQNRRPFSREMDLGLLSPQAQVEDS

[2] = target: T2, recombinant human FLT3 (D835Y) (Homo sapiens, UniProt P36888, D835Y); assay: Enzymatic kinase assay FLT3 (D835Y), 10-dose IC50 mode (Reaction Biology); type: biochemical; conditions: 10 μM ATP
T2 construct: purchased Reaction Biology
T2 sequence (P36888 27-993 D835Y): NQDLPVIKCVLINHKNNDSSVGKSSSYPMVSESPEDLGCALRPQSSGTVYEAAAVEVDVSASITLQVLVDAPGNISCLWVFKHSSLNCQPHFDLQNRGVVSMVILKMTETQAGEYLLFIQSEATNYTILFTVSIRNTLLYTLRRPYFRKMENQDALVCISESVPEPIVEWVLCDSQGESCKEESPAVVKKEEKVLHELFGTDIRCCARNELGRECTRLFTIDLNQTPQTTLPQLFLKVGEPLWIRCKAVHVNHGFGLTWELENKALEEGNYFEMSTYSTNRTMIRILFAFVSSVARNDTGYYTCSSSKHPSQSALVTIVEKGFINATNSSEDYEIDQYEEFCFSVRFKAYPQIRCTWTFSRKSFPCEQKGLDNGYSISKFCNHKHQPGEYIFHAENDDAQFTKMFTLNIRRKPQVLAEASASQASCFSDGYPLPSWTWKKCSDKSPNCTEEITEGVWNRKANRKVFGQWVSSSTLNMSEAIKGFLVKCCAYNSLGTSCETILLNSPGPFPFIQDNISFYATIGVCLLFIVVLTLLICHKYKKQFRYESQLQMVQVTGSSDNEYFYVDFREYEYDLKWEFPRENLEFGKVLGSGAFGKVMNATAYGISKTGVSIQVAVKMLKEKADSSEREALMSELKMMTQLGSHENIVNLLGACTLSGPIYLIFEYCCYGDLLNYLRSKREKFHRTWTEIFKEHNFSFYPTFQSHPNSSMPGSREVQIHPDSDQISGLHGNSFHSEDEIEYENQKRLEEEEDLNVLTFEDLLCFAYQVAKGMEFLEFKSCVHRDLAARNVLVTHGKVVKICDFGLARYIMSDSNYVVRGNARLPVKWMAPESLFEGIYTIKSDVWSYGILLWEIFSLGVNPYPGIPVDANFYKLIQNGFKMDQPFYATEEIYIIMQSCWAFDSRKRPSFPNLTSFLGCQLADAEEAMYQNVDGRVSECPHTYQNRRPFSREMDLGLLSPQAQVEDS

[3] = tested on: MV4-11 cells (FLT3-ITD positive); assay: Cell Titer-Glo proliferation assay with MV4-11 cells; type: cell-based; conditions: Homo sapiens, MV4-11, 72 h
Method: MV4-11 cells are human acute myeloid leukemia cell lines that carry a FLT3-ITD mutation (American Type Culture Collection, ATCC, Manassas, VA, United States). Cells were cultured in IMDM medium plus 100 μg/mL penicillin, 100 μg/mL streptomycin and 10% FBS. All cells were kept at 37° C., 5% CO2.
Cell proliferation was assessed with Cell Titer-Glo® Viability Assay (Promega; Madison, WI, United States) according to the manufacturer's instructions.

[4] = Solubility test by UV-Vis spectroscopy of saturated solutions; type: physicochemical; conditions: solvent DMSO
[5] = ethanol, organic solvent or mixture, ethanol, read-out: Solubility Ethanol
[6] = 10 μM ATP; read-out: IC50 FLT3 (ITD)
[7] = ultrapure water, water, ultrapure water, read-out: Solubility Water

| SMILES | solubility [1, 5] | Solubility Water ([1]; ultrapure water) | IC50 (human FLT3-ITD; [6]) | IC50 ([2]; read-out: IC50 FLT3 (D835Y)) | IC50 ([3]; read-out: IC50 MV4-11 cells) | Solubility DMSO [4] | solubility [1, 7] | Solubility Ethanol ([1]; ethanol) | IC50 (human FLT3-ITD; read-out: IC50 FLT3 (ITD); 10 μM ATP; bis(2,2,2-trifluoroacetate)) | IC50 ([2]; IC50 FLT3 (D835Y) [nM]) | IC50 ([3]; read-out: IC50 MV4-11 cells [nM]) | IC50 (human FLT3-ITD; read-out: IC50 FLT3 (ITD); 10 μM ATP) |
| --- | --- | --- | --- | --- | --- | --- | --- | --- | --- | --- | --- | --- |
| CC(C)(C)c1cc(NC(=O)Nc2ccc3oc(C(=O)c4cc5c(CN6CCOCC6)c(OC(=O)N6CCC(N7CCCCC7)CC6)ccc5[nH]4)cc3c2)no1 [Compound 38b, 2-(5-(3-(5-(tert-Butyl)isoxazol-3-yl)ureido)benzofuran-2-carbonyl)-4-(morpholinomethyl)-1H-indol-5-yl[1,4′-bipiperidine]-1′-carboxylate bis(2,2,2-trifluoroacetate)] | – | – | – | – | – | – | – | – | 1.29 nM | 6.63 nM | 0.38 nM | – |
| CC(C)(C)c1cc(NC(=O)Nc2ccc3oc(C(=O)c4cc5c(CN6CCNCC6)c(O)ccc5[nH]4)cc3c2)no1 [Compound 55b, 1-(5-(tert-Butyl)isoxazol-3-yl)-3-(2-(5-hydroxy-4-(piperazin-1-ylmethyl)-1H-indole-2-carbonyl)benzofuran-5-yl)urea bis(2,2,2-trifluoroacetate)] | 1140 µg/mL (≈ 2050 µM) | – | 3.36 nM | 9.55 nM | 0.42 nM | Soluble | < 100 µg/mL | – | – | – | – | – |
| CN1CCN(Cc2c(OC(=O)N3CCC(N4CCCCC4)CC3)ccc3[nH]c(C(=O)c4cc5cc(NC(=O)Nc6cc(C(C)(C)C)on6)ccc5o4)cc23)CC1 [Compound 41a, 2-(5-(3-(5-(tert-Butyl)isoxazol-3-yl)ureido)benzofuran-2-carbonyl)-4-((4-methylpiperazin-1-yl)methyl)-1H-indol-5-yl [1,4′-bipiperidine]-1′-carboxylate] | – | – | – | – | – | – | – | – | – | 2.46 nM | – | 0.7 nM |

The next lines start with results.

| solubility [1, 5] | Solubility Water ([1]; ultrapure water) | IC50 (human FLT3-ITD; [6]) | IC50 ([2]; read-out: IC50 FLT3 (D835Y)) | IC50 ([3]; read-out: IC50 MV4-11 cells) | Solubility DMSO [4] | solubility [1, 7] | Solubility Ethanol ([1]; ethanol) | SMILES | IC50 (human FLT3-ITD; read-out: IC50 FLT3 (ITD); 10 μM ATP; bis(2,2,2-trifluoroacetate)) | IC50 ([2]; IC50 FLT3 (D835Y) [nM]) | IC50 ([3]; read-out: IC50 MV4-11 cells [nM]) | IC50 (human FLT3-ITD; read-out: IC50 FLT3 (ITD); 10 μM ATP) |
| --- | --- | --- | --- | --- | --- | --- | --- | --- | --- | --- | --- | --- |
| 920 µg/mL (≈ 1540 µM) | <100 µg/mL | 1.98 nM | 2.6 nM | 0.31 nM | Soluble | – | – | CC(C)N1CCN(Cc2c(O)ccc3[nH]c(C(=O)c4cc5cc(NC(=O)Nc6cc(C(C)(C)C)on6)ccc5o4)cc23)CC1 [Compound 70a, 1-(5-(tert-Butyl)isoxazol-3-yl)-3-(2-(5-hydroxy-4-((4-isopropylpiperazin-1-yl)methyl)-1H-indole-2-carbonyl)benzofuran-5-yl)urea] | – | – | – | – |
| 2540 µg/mL (≈ 4160 µM) | – | 1.47 nM | 10.8 nM | 0.17 nM | Soluble | 220 µg/mL (≈ 360 µM) | – | C=CC(=O)N1CCN(Cc2c(O)ccc3[nH]c(C(=O)c4cc5cc(NC(=O)Nc6cc(C(C)(C)C)on6)ccc5o4)cc23)CC1 [Compound 56b, 1-(2-(4-((4-Acryloylpiperazin-1-yl)methyl)-5-hydroxy-1H-indole-2-carbonyl)benzofuran-5-yl)-3-(5-(tert-butyl)isoxazole-3-yl)urea 2,2,2-trifluoroacetate] | – | – | – | – |
| – | – | 1.28 nM | 4.23 nM | 0.13 nM | Soluble | < 100 µg/mL | 970 µg/mL (≈ 1660 µM) | CCN1CCN(Cc2c(O)ccc3[nH]c(C(=O)c4cc5cc(NC(=O)Nc6cc(C(C)(C)C)on6)ccc5o4)cc23)CC1 [Compound 69a, 1-(5-(tert-Butyl)isoxazol-3-yl)-3-(2-(4-((4-ethylpiperazin-1-yl)methyl)-5-hydroxy-1H-indole-2-carbonyl)benzofuran-5-yl)urea] | – | – | – | – |
| 4670 µg/mL (≈ 8180 µM) | – | 0.81 nM | 3.83 nM | – | Soluble | < 100 µg/mL | – | CN1CCN(Cc2c(O)ccc3[nH]c(C(=O)c4cc5cc(NC(=O)Nc6cc(C(C)(C)C)on6)ccc5o4)cc23)CC1 [Compound 33a, 1-(5-(tert-Butyl)isoxazol-3-yl)-3-(2-(5-hydroxy-4-((4-methylpiperazin-1-yl)methyl)-1H-indole-2-carbonyl)benzofuran-5-yl)urea] | – | – | – | – |
| – | – | 4.36 nM | – | 0.24 nM | – | – | – | C/C=C/C(=O)N1CCN(Cc2c(O)ccc3[nH]c(C(=O)c4cc5cc(NC(=O)Nc6cc(C(C)(C)C)on6)ccc5o4)cc23)CC1 [Compound 57a, 1-(2-(4-((4-(But-2-enoyl)piperazin-1-yl)methyl)-5-hydroxy-1H-indole-2-carbonyl)benzofuran-5-yl)-3-(5-(tert-butyl)isoxazole-3-yl)urea] | – | – | – | – |
